This passage reports binding results from article PMC3474971 (2012).

Assay [1] deals with theophylline aptamer (RNA, aptamer) GGUGAUACCAGCAUCGUCUUGAUGCCCUUGGCAGCACC
The assay is described as follows: fluorescence of dye-aptamer complex. Conditions: 140 mM NaCl, 5 mM KCl, 5 mM MgCl2; 20 mM Tris-Cl pH 7.5, 25 °C; dye 25 nM, aptamer 10 nM.

Assay [2] has as its system thrombin-binding aptamer (TBA) (DNA, G4) GGTTGGTGTGGTTGG
The assay is described as follows: fluorescence of dye-aptamer complex. To be noted: 300 mM NaCl, 5 mM MgCl2, 10 mM KCl; 20 mM Tris-Cl pH 7.5, 25 °C; dye 25 nM, aptamer 10 nM.

Assay [3] has as its system ATP aptamer (DNA, aptamer) ATAGCGGAGGAAGGATACCTGGGGGAGTATAT
The assay is described as follows: fluorescence of dye-aptamer complex. Conditions: 300 mM NaCl, 5 mM MgCl2, 10 mM KCl; 20 mM Tris-Cl pH 7.5, 25 °C; dye 25 nM, aptamer 10 nM.

The subject of assay [4] is theophylline aptamer (RNA, aptamer) GGUGAUACCAGCAUCGUCUUGAUGCCCUUGGCAGCACC
The assay is described as follows: fluorescence change of staining dye. To be noted: 140 mM NaCl, 5 mM KCl, 5 mM MgCl2, 20 mM Tris-Cl pH 7.5, 25 °C, aptamer 10 nM.

The subject of assay [5] is ATP aptamer (DNA, aptamer) ATAGCGGAGGAAGGATACCTGGGGGAGTATAT
The assay is described as follows: fluorescence change of staining dye. Conditions: 300 mM NaCl, 5 mM MgCl2, 10 mM KCl, 20 mM Tris-Cl pH 7.5, 25 °C, Hoechst 33258 25 nM as indicator, aptamer 10 nM.

For `CCCN(CCCN(C)C)c1cc(C=C2Sc3ccccc3N2C)c2ccccc2[n+]1-c1ccccc1`, the binding result in assay [1] and in assay [2] was “yes” in each case.

As to `CN1C(=Cc2cc[n+](C)c3ccccc23)Sc2ccccc21`, the binding entry in assay [1] and in assay [2] was “yes” in each case.

Turning to `CN1CCN(c2ccc3nc(-c4ccc5nc(-c6ccc(O)cc6)[nH]c5c4)[nH]c3c2)CC1`, the binding result in assay [3] is recorded as “yes”.

`C[n+]1c(C=C2C=CN(CCC[N+](C)(C)CCC[N+](C)(C)CCCN3C=CC(=Cc4oc5ccccc5[n+]4C)c4ccccc43)c3ccccc32)oc2ccccc21`: the binding entry in assay [2] and in assay [3] was “yes” each time.

Turning to `Cn1c(=O)c2[nH]cnc2n(C)c1=O`, the binding entry in assay [4] (TO or SYBR Green 25 nM as indicator) is on record as “yes”.

With `Cn1c(=O)c2c(ncn2C)n(C)c1=O`, the binding entry in assay [4] (TO 25 nM as indicator, huge excess of caffeine) is “no”.

Regarding `Nc1nc2c(ncn2[C@@H]2O[C@H](COP(=O)(O)OP(=O)(O)OP(=O)(O)O)[C@@H](O)[C@H]2O)c(=O)[nH]1`, the binding entry in assay [5] (~5% change, within error) is recorded as “no”.

`Nc1ncnc2c1ncn2[C@@H]1O[C@H](COP(=O)(O)OP(=O)(O)OP(=O)(O)O)[C@@H](O)[C@H]1O`: the binding entry in assay [5] is “yes”.
